Assay results taken from ChEMBL document CHEMBL4507299, “Data for DCP probe PF-04554878” (2021).

Columns and labels:
[1] = biological target: Serine/threonine-protein kinase MARK2 (Homo sapiens) (UniProt Q7KZI7)
[2] = tested on: Receptor-type tyrosine-protein kinase FLT3 (Homo sapiens), P36888 [D835H]
[3] = biological target: Serine/threonine-protein kinase 4 (Homo sapiens) (UniProt Q13043)
[4] = biological target: Serine/threonine-protein kinase 38-like (Homo sapiens) (UniProt Q9Y2H1)
[5] = tested on: Receptor-type tyrosine-protein kinase FLT3 (Homo sapiens), P36888 [N841I]
[6] = biological target: Tyrosine-protein kinase Yes (Homo sapiens) (UniProt P07947)
[7] = biological target: Ephrin type-B receptor 1 (Homo sapiens) (UniProt P54762)
[8] = tested on: Mast/stem cell growth factor receptor Kit (Homo sapiens), P10721 [L576P]
Mast/stem cell growth factor receptor Kit (Homo sapiens), P10721 [L576P], sequence (P10721 whole entry L576P): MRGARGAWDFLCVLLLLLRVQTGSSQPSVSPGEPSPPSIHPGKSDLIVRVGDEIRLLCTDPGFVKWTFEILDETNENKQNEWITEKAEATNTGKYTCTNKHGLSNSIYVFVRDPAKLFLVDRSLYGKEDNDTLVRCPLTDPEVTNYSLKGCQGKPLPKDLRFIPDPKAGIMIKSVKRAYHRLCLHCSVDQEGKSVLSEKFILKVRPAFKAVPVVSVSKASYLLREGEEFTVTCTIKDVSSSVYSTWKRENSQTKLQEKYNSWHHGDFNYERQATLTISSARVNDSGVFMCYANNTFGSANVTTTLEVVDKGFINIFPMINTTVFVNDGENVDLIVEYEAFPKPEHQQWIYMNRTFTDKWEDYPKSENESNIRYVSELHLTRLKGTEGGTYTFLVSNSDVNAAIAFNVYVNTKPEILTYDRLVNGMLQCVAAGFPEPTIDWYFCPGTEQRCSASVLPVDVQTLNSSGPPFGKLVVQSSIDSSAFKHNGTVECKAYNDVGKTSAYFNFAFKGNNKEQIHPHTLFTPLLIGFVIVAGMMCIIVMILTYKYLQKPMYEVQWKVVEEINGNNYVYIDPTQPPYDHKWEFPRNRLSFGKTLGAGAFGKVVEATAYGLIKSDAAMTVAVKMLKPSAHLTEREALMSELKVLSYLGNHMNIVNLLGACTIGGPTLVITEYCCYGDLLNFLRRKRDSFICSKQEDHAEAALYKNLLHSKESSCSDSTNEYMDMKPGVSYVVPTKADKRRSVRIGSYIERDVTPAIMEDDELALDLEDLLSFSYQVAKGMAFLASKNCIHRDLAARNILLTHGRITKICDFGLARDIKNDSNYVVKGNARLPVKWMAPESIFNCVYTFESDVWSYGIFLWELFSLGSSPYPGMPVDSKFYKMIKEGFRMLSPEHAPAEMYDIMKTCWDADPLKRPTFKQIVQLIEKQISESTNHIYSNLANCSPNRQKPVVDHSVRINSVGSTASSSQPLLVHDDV

[9] = biological target: Cyclin-dependent kinase 9 (Homo sapiens) (UniProt P50750)
[10] = biological target: Myosin light chain kinase family member 4 (Homo sapiens) (UniProt Q86YV6)
[11] = biological target: Cyclin-dependent kinase-like 5 (Homo sapiens) (UniProt O76039)
[12] = biological target: Mitogen-activated protein kinase kinase kinase 11 (Homo sapiens) (UniProt Q16584)
[13] = biological target: SRSF protein kinase 2 (Homo sapiens) (UniProt P78362)
[14] = biological target: Histamine H1 receptor (Homo sapiens) (UniProt P35367); settings: Compound concentration 10.0 uM
[15] = biological target: Tyrosine-protein kinase Fyn (Homo sapiens) (UniProt P06241)
[16] = biological target: Sigma non-opioid intracellular receptor 1 (Homo sapiens) (UniProt Q99720); settings: Compound concentration 10.0 uM
[17] = biological target: Tyrosine-protein kinase ITK/TSK (Homo sapiens) (UniProt Q08881)
Tyrosine-protein kinase ITK/TSK (Homo sapiens), sequence (Q08881 whole entry): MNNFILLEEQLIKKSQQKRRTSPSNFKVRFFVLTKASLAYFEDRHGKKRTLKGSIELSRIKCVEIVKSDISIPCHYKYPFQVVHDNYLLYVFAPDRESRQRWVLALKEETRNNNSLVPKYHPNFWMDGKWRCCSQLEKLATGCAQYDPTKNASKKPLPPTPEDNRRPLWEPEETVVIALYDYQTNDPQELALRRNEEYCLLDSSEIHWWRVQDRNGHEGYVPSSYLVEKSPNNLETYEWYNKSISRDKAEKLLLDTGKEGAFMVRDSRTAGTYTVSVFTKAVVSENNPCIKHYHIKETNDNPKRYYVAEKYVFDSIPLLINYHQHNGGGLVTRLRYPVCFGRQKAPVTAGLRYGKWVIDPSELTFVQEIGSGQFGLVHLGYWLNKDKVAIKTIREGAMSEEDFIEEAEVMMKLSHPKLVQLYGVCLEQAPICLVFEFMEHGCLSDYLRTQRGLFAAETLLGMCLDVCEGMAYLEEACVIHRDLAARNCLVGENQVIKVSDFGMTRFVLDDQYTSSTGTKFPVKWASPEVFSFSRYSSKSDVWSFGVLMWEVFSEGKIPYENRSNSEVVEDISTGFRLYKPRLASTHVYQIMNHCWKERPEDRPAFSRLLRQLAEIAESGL

[18] = biological target: Alpha-1D adrenergic receptor (Homo sapiens) (UniProt P25100); settings: Compound concentration 10.0 uM
Alpha-1D adrenergic receptor (Homo sapiens), sequence (P25100 whole entry): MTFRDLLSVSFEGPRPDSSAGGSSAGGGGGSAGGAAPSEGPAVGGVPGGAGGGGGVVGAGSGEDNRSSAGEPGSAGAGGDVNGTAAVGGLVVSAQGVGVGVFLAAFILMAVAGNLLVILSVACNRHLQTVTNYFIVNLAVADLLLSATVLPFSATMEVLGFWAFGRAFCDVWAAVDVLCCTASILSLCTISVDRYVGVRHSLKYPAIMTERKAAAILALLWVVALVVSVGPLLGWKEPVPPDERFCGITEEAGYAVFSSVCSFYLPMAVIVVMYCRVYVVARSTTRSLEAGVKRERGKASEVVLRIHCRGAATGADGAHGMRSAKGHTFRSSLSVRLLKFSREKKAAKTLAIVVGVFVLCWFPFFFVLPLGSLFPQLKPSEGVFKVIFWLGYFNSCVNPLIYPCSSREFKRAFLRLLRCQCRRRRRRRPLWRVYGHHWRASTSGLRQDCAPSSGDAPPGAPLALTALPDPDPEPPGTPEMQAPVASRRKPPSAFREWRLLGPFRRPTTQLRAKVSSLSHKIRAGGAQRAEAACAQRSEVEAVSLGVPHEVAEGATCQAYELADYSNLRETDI

[19] = biological target: Ribosomal protein S6 kinase alpha-1 (Homo sapiens) (UniProt Q15418)
[20] = biological target: RAC-beta serine/threonine-protein kinase (Homo sapiens) (UniProt P31751)
[21] = biological target: MAP/microtubule affinity-regulating kinase 3 (Homo sapiens) (UniProt P27448)
[22] = biological target: Receptor tyrosine-protein kinase erbB-3 (Homo sapiens) (UniProt P21860)
[23] = biological target: Fibroblast growth factor receptor 1 (Homo sapiens) (UniProt P11362)
[24] = biological target: Tyrosine-protein kinase Tec (Homo sapiens) (UniProt P42680)
Tyrosine-protein kinase Tec (Homo sapiens), sequence (P42680 whole entry): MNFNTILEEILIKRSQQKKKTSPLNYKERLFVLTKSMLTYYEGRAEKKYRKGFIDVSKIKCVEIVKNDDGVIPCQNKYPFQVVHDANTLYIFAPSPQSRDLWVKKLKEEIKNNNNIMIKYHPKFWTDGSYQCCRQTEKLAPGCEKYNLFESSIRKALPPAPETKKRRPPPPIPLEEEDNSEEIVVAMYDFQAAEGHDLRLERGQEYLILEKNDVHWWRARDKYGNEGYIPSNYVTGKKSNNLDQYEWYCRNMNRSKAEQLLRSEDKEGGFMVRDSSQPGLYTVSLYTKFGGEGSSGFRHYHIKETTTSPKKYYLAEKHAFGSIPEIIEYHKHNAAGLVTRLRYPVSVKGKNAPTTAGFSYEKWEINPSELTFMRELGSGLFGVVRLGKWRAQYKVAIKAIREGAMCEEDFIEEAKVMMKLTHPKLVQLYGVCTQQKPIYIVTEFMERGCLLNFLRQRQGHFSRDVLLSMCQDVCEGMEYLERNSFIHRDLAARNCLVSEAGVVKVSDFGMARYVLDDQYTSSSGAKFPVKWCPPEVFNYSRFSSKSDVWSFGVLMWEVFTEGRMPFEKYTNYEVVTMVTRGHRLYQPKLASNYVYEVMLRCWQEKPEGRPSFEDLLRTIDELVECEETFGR

[25] = biological target: Serine/threonine-protein kinase 32A (Homo sapiens) (UniProt Q8WU08)
[26] = biological target: Receptor-interacting serine/threonine-protein kinase 1 (Homo sapiens) (UniProt Q13546)
[27] = biological target: Rhodopsin kinase GRK1 (Homo sapiens) (UniProt Q15835)
[28] = biological target: Transient receptor potential cation channel subfamily M member 6 (Homo sapiens) (UniProt Q9BX84)
[29] = biological target: Ribosomal protein S6 kinase alpha-3 (Homo sapiens) (UniProt P51812)
[30] = tested on: Epidermal growth factor receptor (Homo sapiens), P00533 [L858R]
[31] = biological target: Ribosomal protein S6 kinase alpha-4 (Homo sapiens) (UniProt O75676)
Ribosomal protein S6 kinase alpha-4 (Homo sapiens), sequence (O75676 whole entry, looked up): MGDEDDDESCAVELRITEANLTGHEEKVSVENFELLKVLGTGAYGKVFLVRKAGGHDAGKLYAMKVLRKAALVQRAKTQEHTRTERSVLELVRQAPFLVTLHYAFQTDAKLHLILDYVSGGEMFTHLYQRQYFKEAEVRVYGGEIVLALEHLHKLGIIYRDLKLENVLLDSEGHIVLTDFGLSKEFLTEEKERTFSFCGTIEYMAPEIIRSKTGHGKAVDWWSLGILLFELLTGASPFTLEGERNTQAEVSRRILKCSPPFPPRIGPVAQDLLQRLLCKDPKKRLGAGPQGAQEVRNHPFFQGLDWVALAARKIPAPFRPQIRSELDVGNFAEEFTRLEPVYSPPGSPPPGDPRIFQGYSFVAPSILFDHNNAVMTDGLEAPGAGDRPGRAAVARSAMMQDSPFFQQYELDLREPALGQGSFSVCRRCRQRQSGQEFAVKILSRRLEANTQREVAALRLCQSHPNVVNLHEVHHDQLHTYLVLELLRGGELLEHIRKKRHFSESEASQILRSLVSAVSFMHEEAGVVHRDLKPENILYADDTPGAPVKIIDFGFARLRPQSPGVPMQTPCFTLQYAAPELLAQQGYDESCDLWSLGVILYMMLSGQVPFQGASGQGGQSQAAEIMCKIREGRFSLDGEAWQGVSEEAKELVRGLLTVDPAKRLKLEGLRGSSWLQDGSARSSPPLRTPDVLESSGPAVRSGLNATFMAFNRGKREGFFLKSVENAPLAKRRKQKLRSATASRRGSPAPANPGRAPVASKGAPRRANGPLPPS

[32] = biological target: 1-phosphatidylinositol 3-phosphate 5-kinase (Homo sapiens) (UniProt Q9Y2I7)
[33] = biological target: Serine/threonine-protein kinase SIK1 (Homo sapiens) (UniProt P57059)
[34] = biological target: BMP-2-inducible protein kinase (Homo sapiens) (UniProt Q9NSY1)
[35] = tested on: Receptor-type tyrosine-protein kinase FLT3 (Homo sapiens), P36888 [R834Q]
[36] = biological target: Serine/threonine-protein kinase PAK 1 (Homo sapiens) (UniProt Q13153)
[37] = biological target: Microtubule-associated serine/threonine-protein kinase 1 (Homo sapiens) (UniProt Q9Y2H9)
[38] = biological target: Mitogen-activated protein kinase kinase kinase kinase 3 (Homo sapiens) (UniProt Q8IVH8)
[39] = biological target: Calcium/calmodulin-dependent protein kinase type 1B (Homo sapiens) (UniProt Q6P2M8)
[40] = biological target: Calcium/calmodulin-dependent protein kinase type II subunit delta (Homo sapiens) (UniProt Q13557)
[41] = biological target: ALK tyrosine kinase receptor (Homo sapiens) (UniProt Q9UM73)
[42] = biological target: Serine/threonine-protein kinase Nek5 (Homo sapiens) (UniProt Q6P3R8)
[43] = tested on: Proto-oncogene tyrosine-protein kinase receptor Ret (Homo sapiens), P07949 [V804L]
Proto-oncogene tyrosine-protein kinase receptor Ret (Homo sapiens), P07949 [V804L], sequence (P07949 whole entry V804L): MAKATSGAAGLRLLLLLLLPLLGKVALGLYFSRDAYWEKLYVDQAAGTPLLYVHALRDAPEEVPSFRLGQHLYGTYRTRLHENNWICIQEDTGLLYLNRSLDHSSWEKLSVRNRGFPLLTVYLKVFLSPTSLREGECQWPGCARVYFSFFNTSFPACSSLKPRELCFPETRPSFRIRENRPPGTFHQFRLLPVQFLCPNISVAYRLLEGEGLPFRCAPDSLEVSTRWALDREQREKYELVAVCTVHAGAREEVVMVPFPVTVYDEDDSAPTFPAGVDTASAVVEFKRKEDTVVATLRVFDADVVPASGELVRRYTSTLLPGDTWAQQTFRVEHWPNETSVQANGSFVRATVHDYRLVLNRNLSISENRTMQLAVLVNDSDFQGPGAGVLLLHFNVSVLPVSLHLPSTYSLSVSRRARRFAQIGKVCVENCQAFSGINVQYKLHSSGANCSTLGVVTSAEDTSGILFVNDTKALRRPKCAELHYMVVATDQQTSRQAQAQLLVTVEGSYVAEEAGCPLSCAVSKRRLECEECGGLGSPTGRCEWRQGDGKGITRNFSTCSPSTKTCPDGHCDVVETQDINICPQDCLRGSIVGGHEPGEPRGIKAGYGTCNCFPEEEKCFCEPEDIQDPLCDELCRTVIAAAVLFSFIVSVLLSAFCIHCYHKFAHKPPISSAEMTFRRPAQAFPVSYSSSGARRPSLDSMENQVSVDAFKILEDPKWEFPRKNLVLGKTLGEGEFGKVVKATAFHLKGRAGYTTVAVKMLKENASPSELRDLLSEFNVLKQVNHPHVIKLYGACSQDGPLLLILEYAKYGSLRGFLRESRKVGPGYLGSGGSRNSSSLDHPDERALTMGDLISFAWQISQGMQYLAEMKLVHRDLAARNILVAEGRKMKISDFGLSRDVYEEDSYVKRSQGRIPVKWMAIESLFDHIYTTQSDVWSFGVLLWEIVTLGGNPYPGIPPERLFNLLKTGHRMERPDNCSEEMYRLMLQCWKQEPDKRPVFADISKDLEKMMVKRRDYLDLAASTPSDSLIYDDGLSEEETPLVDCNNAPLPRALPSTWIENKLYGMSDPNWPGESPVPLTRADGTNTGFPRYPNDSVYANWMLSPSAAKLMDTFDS

[44] = biological target: Delta-type opioid receptor (Homo sapiens) (UniProt P41143); settings: Compound concentration 10.0 uM
Delta-type opioid receptor (Homo sapiens), sequence (P41143 whole entry): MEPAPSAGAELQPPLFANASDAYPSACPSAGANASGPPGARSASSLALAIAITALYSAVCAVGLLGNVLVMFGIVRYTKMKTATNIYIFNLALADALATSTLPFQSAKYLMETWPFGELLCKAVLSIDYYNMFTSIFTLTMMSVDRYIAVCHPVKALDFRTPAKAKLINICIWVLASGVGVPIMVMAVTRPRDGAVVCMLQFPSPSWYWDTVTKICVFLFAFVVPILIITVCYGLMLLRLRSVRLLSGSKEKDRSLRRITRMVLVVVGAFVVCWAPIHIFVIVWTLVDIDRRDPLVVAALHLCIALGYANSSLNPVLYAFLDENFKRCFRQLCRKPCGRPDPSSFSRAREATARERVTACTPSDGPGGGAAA

[45] = biological target: Serine/threonine-protein kinase Nek1 (Homo sapiens) (UniProt Q96PY6)
[46] = Compound concentration 100.0 nM
[47] = Compound concentration 1000.0 nM

What does the source list for `CNC(=O)c1ccc(Nc2ncc(C(F)(F)F)c(NCc3nccnc3N(C)S(C)(=O)=O)n2)cc1` [DEFACTINIB]?
residual activity [1, 46]: 66%; residual activity [2, 46]: 9.8%; residual activity [3, 46]: 97%; residual activity [4, 46]: 73%; residual activity [5, 46]: 0%; residual activity [6, 46]: 100%; residual activity [7, 46]: 87%; residual activity [8, 46]: 86%; residual activity [9, 46]: 86%; residual activity [10, 46]: 100%; residual activity [11, 46]: 100%; residual activity [12, 46]: 35%; residual activity [13, 46]: 100%; inhibition [14]: -3.38%; residual activity [15, 46]: 100%; inhibition [16]: 40.1%; residual activity [17, 46]: 80%; inhibition [18]: 4.13%; residual activity [19, 46]: 100%; residual activity [20, 46]: 77%; residual activity [21, 46]: 90%; residual activity [22, 46]: 93%; residual activity [23, 46]: 89%; residual activity [24, 46]: 100%; residual activity [25, 46]: 71%; residual activity [26, 46]: 100%; residual activity [27, 46]: 99%; residual activity [28, 46]: 98%; residual activity [29, 46]: 100%; residual activity [30, 46]: 100%; residual activity [31, 46]: 57%; residual activity [32, 46]: 100%; residual activity [33, 46]: 90%; residual activity [34, 46]: 81%; residual activity [35, 46]: 64%; residual activity [36, 46]: 75%; residual activity [37, 46]: 100%; residual activity [38, 46]: 95%; residual activity [39, 46]: 100%; residual activity [40, 46]: 83%; residual activity [41, 46]: 58%; residual activity [42, 46]: 100%; residual activity [43, 46]: 30%; inhibition [44]: -0.28%; residual activity [45, 46]: 75%

How did the residual activity [1, 47] turn out when `CN(c1ccnc(CNc2nc(Nc3ccc4c(c3)CC(=O)N4)ncc2C(F)(F)F)n1)S(C)(=O)=O` [PF-00911705] was run?
The residual activity was 47%.

What about the residual activity [2, 47] of the same compound?
Its residual activity is 15%.

And the residual activity [3, 47]?
Its residual activity is 100%.

What about the residual activity [4, 47] of the same compound?
The residual activity was 75%.

What about the residual activity [5, 47] of the same compound?
Its residual activity is 0%.

And the residual activity [6, 47]?
Its residual activity is 77%.

And the residual activity [7, 47]?
The residual activity was 99%.

What about the residual activity [8, 47] of the same compound?
Its residual activity is 66%.

What about the residual activity [9, 47] of the same compound?
Its residual activity is 84%.

What about the residual activity [10, 47] of the same compound?
The residual activity was 35%.

And the residual activity [11, 47]?
Its residual activity is 87%.

And the residual activity [12, 47]?
Its residual activity is 32%.

And the residual activity [13, 47]?
Its residual activity is 40%.

What about the inhibition [14] of the same compound?
The inhibition was 21.4%.

What about the residual activity [15, 47] of the same compound?
Its residual activity is 59%.

And the inhibition [16]?
Its inhibition is 23.1%.

What about the residual activity [17, 47] of the same compound?
The residual activity was 93%.

What about the inhibition [18] of the same compound?
Its inhibition is 15.9%.

What about the residual activity [19, 47] of the same compound?
Its residual activity is 100%.

And the residual activity [20, 47]?
The residual activity was 82%.

And the residual activity [21, 47]?
The residual activity was 52%.

What about the residual activity [22, 47] of the same compound?
The residual activity was 78%.

What about the residual activity [23, 47] of the same compound?
Its residual activity is 82%.

What about the residual activity [24, 47] of the same compound?
Its residual activity is 100%.

And the residual activity [25, 47]?
The residual activity was 72%.

And the residual activity [26, 47]?
The residual activity was 100%.

And the residual activity [27, 47]?
The residual activity was 74%.

And the residual activity [28, 47]?
The residual activity was 86%.

What about the residual activity [29, 47] of the same compound?
Its residual activity is 85%.

What about the residual activity [30, 47] of the same compound?
The residual activity was 73%.

What about the residual activity [31, 47] of the same compound?
Its residual activity is 72%.

And the residual activity [32, 47]?
The residual activity was 100%.

And the residual activity [33, 47]?
Its residual activity is 76%.

And the residual activity [34, 47]?
The residual activity was 2.3%.

What about the residual activity [35, 47] of the same compound?
Its residual activity is 30%.

What about the residual activity [36, 47] of the same compound?
The residual activity was 73%.

And the residual activity [37, 47]?
Its residual activity is 69%.

What about the residual activity [38, 47] of the same compound?
The residual activity was 87%.

And the residual activity [39, 47]?
Its residual activity is 66%.

What about the residual activity [40, 47] of the same compound?
The residual activity was 100%.

And the residual activity [41, 47]?
The residual activity was 81%.

What about the residual activity [42, 47] of the same compound?
The residual activity was 63%.

And the residual activity [43, 47]?
The residual activity was 21%.

And the inhibition [44]?
Its inhibition is -6.88%.

What about the residual activity [45, 47] of the same compound?
Its residual activity is 51%.
